# From patent US20140004209A1, “AUTOPHAGY INDUCER AND INHIBITOR COMBINATION THERAPY FOR THE TREATMENT OF NEOPLASMS” (GENENTECH, INC., priority 2010, published 2014)
# Entries after “also recorded” stand apart in the source; their conditions may differ.
# Legend:
# Type in all cases: cell-based, human
# PC3 cells [1] = assay: Autophagy markers in PC3 cells (EM AVs, GFP-LC3, LC3-II/LC3-I, MDC, AO)
# PC3 cells [2] = assay: Mitochondrial membrane potential (MitoPT dye) in PC3 cells; conditions: for mitochondrial membrane potential, II-4 (Akti-1/2) and CQ: 3 μM Akti-1/2, 10 μM CQ
# Method: FIG. 21. […] Images at 48 h are shown. […] Merged images between red and green channels are also shown (MitoPT-M). Scale bar: 20 μm. (B) Percentage of cells showing red punctate stains and diffuse green stains from treatments described in (A). >86 cells from two random fields of fluorescent images of each treatment were counted. Error bars represent standard deviations between the two fields. […] Total fluorescence intensity from all cells was collected using the Isocyte (Blueshift Biotechnologies), a laser scanning imager. Green fluorescence intensity is collected with a 488 nm laser and a 510-540 nm band pass filter, and normalized to cell number determined by Hoechst staining using a 405 nm laser and a 430-480 nm band pass filter. Error bars, standard deviation between two independent experiments. (D) Representative images of the green ROS signals and bright field (BF) taken under a Nikon TE300 inverted microscope. […] Scale bar: 20 μm.
# Cell Culture and Reagents: The PTEN^−/− and PTEN^+/+ MEFs were maintained as previously described (Sun, H., R. Lesche, D. M. Li, J. Liliental, H. Zhang, J. Gao, N. Gavrilova, B. Mueller, X. Liu, and H. Wu, (1999), PTEN modulates cell cycle progression and cell survival by regulating phosphatidylinositol 3,4,5,-trisphosphate and Akt/protein kinase B signaling pathway. Proc Natl Acad Sci USA. 96:6199-204). The PC3 and U87MG cells were maintained at 37° C. and 5% CO2 in DMEM/Ham's F-12 (1:1) containing 10% tetracycline-free fetal bovine serum. II-4 was from Calbiochem (Akt inhibitor VIII) (Barnett, S. F., D. Defeo-Jones, S. Fu, P. J. Hancock, K. M. Haskell, R. E. Jones, J. A. Kahana, A. M. Kral, K. Leander, L. L. Lee, J. Malinowski, E. M. McAvoy, D. D. Nahas, R. G. Robinson, and H. E. Huber, (2005), Identification and characterization of pleckstrin-homology-domain-dependent and isoenzyme-specific Akt inhibitors. Biochem J. 385:399-408). […] Image-iT LIVE Green Reactive Oxygen Species Detection Kit was purchased from Molecular Probes. MitoPT Mitochondria Permeability Transition Detection Kit was purchased from Immunochemistry Technologies, LLC.
# PC3 cells [3] = assay: Microarray analysis of autophagy gene expression in PC3 cells; conditions: 1 or 5 μM for 6 or 24 hours, normalized to DMSO
# Method: PC3 cells were induced to express shRNA to indicated Akt isoforms for 72 hours by Doxycycline, RNA was extracted from both Dox treated (Dox+) or untreated control (Dox−) cells. Microarray analysis was carried out using Affymetrix chips. Ratios of the expression levels of each autophagy gene from Dox+ and Dox− samples are shown. Data are mean values from 3 independent experiments.
# RNA was extracted from the cells. Microarray analysis was carried out using Affymetrix chips. Expression levels of each autophagy gene are normalized to the DMSO controls. Data are mean values from 3 independent experiments.
# Akt = assay: Immunoblot of Akt and S6 phosphorylation in PC3 cells; conditions: II-4 alone
# Source text: Western blot analysis, immunofluorescence, 1HC and TUNEL assay: For Western blot analysis, total protein lysates were subjected to SDS-PAGE and transferred to nitrocellulose. Antibodies used were: anti-Akt1, anti-Akt2, anti-Akt3, anti-total-Akt, anti-p-Akt (Ser473), anti-p-Akt (Thr308), anti-p-S6 (Ser235/236), anti-PARP and anti-cleaved caspase-3 (Cell Signaling Technology); anti-p-PRAS40 (Invitrogen); anti-p27^Kip1 (Santa Cruz Biotechnology); anti-LC3 (Novus); anti-LAMP2 and anti-Cathepsin D (BD Biosciences); and anti-GAPDH (Advanced Immunochemical Inc.). Primary antibodies were detected using IR Dye 800-conjugated (Rockland) and Alexa-Fluoro 680-conjugated (Molecular Probes) species-selective secondary antibodies. Detection and quantification were performed using an Odyssey infrared scanner (LICOR) using the manufacturer's software. For immunofluorescence staining, cells were fixed in 3% paraformaldehyde and permeabilized with 0.01% digitonin in PBS, followed by a rabbit polyclonal anti-LC3 (Abgent) primary antibody detected with a cy3-conjugated anti-rabbit secondary antibody (Jackson Immunoresearch). For IHC, formalin-fixed, paraffin-embedded specimens were collected. 5-μm-thick paraffin-embedded sections were stained using an anti-Ki-67 (MIB-1, DakoCytomation) antibody with the Dako ARK kit (Dako Corporation). Tissues were counterstained with haematoxylin, dehydrated, and mounted. In all cases, antigen retrieval was performed with the Dako Target Retrieval Kit as per manufacturer's instructions. For TUNEL assay, formalin-fixed, paraffin-embedded sections were stained using an in situ cell death detection kit (POD; Roche Diagnostic) according to the manufacturer's instructions.
smiles,measurement,setting,value
"O=c1[nH]c2ccccc2n1C1CCN(Cc2ccc(-c3nc4cc5nc[nH]c5cc4nc3-c3ccccc3)cc2)CC1 [II-4, 1-(1-(4-(7-phenyl-1H-imidazo[4,5-g]quinoxalin-6-yl)benzyl)piperidin-4-yl)-1H-benzo[d]imidazol-2 (3H)-one]","AVO accumulation and apoptotic nuclei, II-4 and CQ (multispectral imaging flow cytometry)",PC3 cells [1],further increase in AVO accumulation in live cells and a concomitant increase in cells with condensed apoptotic nuclei
same,"AVO accumulation, agent alone (multispectral imaging flow cytometry)",PC3 cells [1],induced AVO accumulation without significant loss of viability
same,"AVs and nuclei by EM, Akti-1/2 and CQ","PC3 cells [1]; 5 μM Akti-1/2, 10 μM CQ, 0.5% FBS",accumulation of larger AVs and the appearance apoptotic nuclei
same,accumulation of LC3-II,PC3 cells [1]; II-4 alone,significant accumulation of LC3-II within 24 h
same,"accumulation of LC3-II, with CQ cotreatment",PC3 cells [1]; II-4 and 10 μM CQ,further enhanced upon CQ cotreatment
same,"induction of AV accumulation / autophagy, agent alone",PC3 cells [1]; listed as Akti-1/2,induced overt autophagy; also recorded: induced accumulation of AVs
same,"mitochondrial membrane potential, II-4 (Akti-1/2) and CQ",PC3 cells [2],almost complete loss of mitochondrial potential
same,"mitochondrial membrane potential, II-4 (Akti-1/2) and CQ",PC3 cells [2]; listed as Akti-1/2,CQ enhanced Akti-1/2-induced mitochondria depolarization
same,"mitochondrial membrane potential, agent alone",PC3 cells [2]; 0.5% FBS,caused a decrease in mitochondrial membrane potential
same,autophagy gene expression,PC3 cells [3],induce autophagy gene expression
same,phosphorylation of Akt on Ser473 and Thr308,Akt,effectively inhibited the phosphorylation of Akt on both Ser473 and Thr308 residues
same,phosphorylation of downstream target S6,Akt,significantly reduced the phosphorylation of downstream target S6
